{"source": "patent US20090124631A1", "about": "“Combination Therapy” (priority 2007, published 2009)", "key": {"[1]": {"tested_on": "histone H3 acetylation in human bladder carcinoma T24 cells", "experiment": "Cell-based ELISA for H3 acetylation", "experimental": "Bladder carcinoma T24 cells were seeded in black plates with clear bottoms (Costar #3603) at 1×10^4 cells per well in a volume of 100 μl per well, and were allowed to settle for one day at 37° C. in a CO2 incubator. The cells were treated for 16 h with various concentrations of HDAC inhibitors. 3 h before the end of the treatment, Alamar Blue (BioSource) was added to monitor cell viability according to the manufacturer's instructions. At the end of the treatment time, Alamar Blue OD (at 570 nm and 600 nm) was recorded, then the cells were carefully washed in PBS, fixed in pre-chilled methanol for 10 min at −20° C., washed again twice in PBS, and blocked in PBS containing 0.1% Triton X-100 and 1% BSA for a minimum of 30 min. For H3 acetylation, rabbit-anti-acetyl-H3 (Upstate #06-599) was used as primary antibody at a dilution of 1:1000 for 45 min; the secondary antibody was HRP-coupled goat-anti-rabbit (Sigma #A-0545), used at 1:8000 for 45 min. For tubulin acetylation, the primary antibody was mouse anti-acetyl-tubulin (Sigma #T-6793, 1:2000, 45 min) while the secondary was HRP-coupled goat-anti-mouse antibody (Sigma #A-2304, 1:8000, 45 min). All antibodies were diluted in blocking buffer, and the cells were washed in blocking buffer following each antibody incubation. […] The fluorescent signal for acetylation was normalized by dividing with the viability data obtained from Alamar Blue. EC50 was defined as the concentration of compound which gave a signal half-way between the basal (untreated) level and the maximum level generated by high doses of the HDAC pan-inhibitor NVP-LAQ-824."}, "[2]": {"tested_on": "co-cultured human endothelial cells", "experiment": "Human multicellular angiogenesis model (AngioKit)", "type": "cell-based", "details": "AngioKit, 30, 100 and 300 nM", "experimental": "Briefly, 24 well plates were seeded with cells on day 0 and medium was changed on days 3, 4, 7, 10 and 12. […] All AngioKits were then fixed and stained on day 14, using the CD31 Staining Kits according to the standard AngioKit procedure. Comparison of tubule development was conducted using the “AngioSys” image analysis system developed specifically for the analysis of images produced using the AngioKit. Four images taken from predetermined positions within each well were recorded. Each concentration of test compound therefore yielded […] for analysis in duplicate. Images were always taken from as close to the centre of each quadrant as possible. Four tubule parameters were measured: total tubule length, total tubule area, number of branch points and number of tubules formed. All statistical analyses were carried out using the Stat 100 programme from BIOSOFT Ltd. using ANOVA and Duncan's Multiple Comparison Test to measure differences between the test compounds with the untreated control values. Alpha was always 0.05 unless otherwise stipulated."}, "H460 (NSCLC) xenografts": {"tested_on": "H460 (NSCLC) xenografts", "experiment": "H460 (NSCLC) xenograft, oral HDAC inhibitor with taxol", "type": "in vivo, mouse", "experimental": "Antitumor studies were done using human H460 non-small cell lung tumor, Du145 prostate tumor, TSU-Pr1 prostate tumor, and AZ521 gastric tumor xenograft model in male BALBc/A nude mice (from Japan Crea Inc., Japan). Male nude mice were used at age 8-10 weeks. Human carcinoma cells were injected subcutaneously in the animal flank and allowed to form solid tumors. Tumor fragments (about 2 mm^3 fragments) were then removed and implanted subcutaneously through a small surgical incision to the right flank of other animals. […] Tumor volumes and gross body weight of animals were monitored twice weekly for up to 2 weeks for AZ-521 and TSU-Pr1, or 4 weeks for H460 and Du145 xenografts. Each experimental group contained 6 animals."}, "[3]": {"tested_on": "bFGF transcription in human prostate cancer Du145 cells", "experiment": "bFGF transcription in Du145 cells in vitro", "type": "cell-based", "details": "3 μM, 24 hour treatment", "experimental": "Human prostate cancer Du145 cells were exposed to Cpd A or SAHA (3 microM) for 24 hours. Total RNA was collected by Isogen (Nippongene, Tokyo, Japan) and reverse-transcribed to cDNA by ExScript® RT reagent Kit (TAKARA, Kyoto, Japan). The expression level of bFGF mRNA was detected by ABI7700 analyzer using probe/primer pre-mixture reagent (ABI, Cat# Hs00266645_m1, CA, USA) and TaqMan® Universal PCR Master Mix (ABI, Cat# 430-4437) as described in the ABI's protocol. The expression level of VEGF mRNA was detected in a similar manner using the appropriate probe/primer reagents."}, "[4]": {"tested_on": "MT3 transcription in implanted H460 tumors", "experiment": "MT3 transcription in implanted H460 tumors in vivo", "parameters": "species or system mouse", "details": "H460 tumors in mice, single dose 100 mg/kg po", "experimental": "6 hours or 24 hours post drug administration, mice were sacrificed and tumor excised and put in RNAlater (Ambion, Austin, Tex.) and stored at −70 C until RNAs were extracted using QiaShredder and RNeasy mini kit (Qiagen). For real time RT-PCR to determine MT3 transcription level, 1 μg RNA was converted into cDNA using Expand RT enzyme (Roche) and Oligo(dT) primers (Invitrogen) in a 20 μl reaction volume. For quantitative real-time PCR, the primers used for MT3 were 5′CCCTGCGGAGTGTGAGAAGT 3′ and 5′TGCTTCTGCCTCAGCTGCCT 3′ and those for β-actin were 5′CTCTTCCAGCCTTCCTTCCT 3′ and 5′AGCACTGTGTTGGCGTACAG 3′. Reactions with either pair of primers included an annealing temperature of 63.4° C. All real-time PCR reactions were performed on the MasterCycler ep Realplex (Eppendorf) using FastStart SYBRGreen Master (Roche)."}, "[5]": {"tested_on": "human AZ521 gastric tumor xenograft", "experiment": "AZ521 gastric tumor xenograft, combination with taxol", "type": "in vivo, mouse", "details": "AZ521, Compound D 40 mg/kg oral daily 14 days with taxol 20 mg/kg i.v.", "experimental": "Antitumor studies were done using human AZ521 gastric tumor xenograft model in male BALBc/A nude mice (from Japan Crea Inc., Japan). Male nude mice were used at age 8-10 weeks. Human carcinoma cells were injected subcutaneously in the animal flank and allowed to form solid tumors. Tumor fragments (about 2 mm^2 fragments) were then removed and implanted subcutaneously to the right flank of other animals. When the tumor sizes reached about 100 to 200 mm^3, recipient animals were treated Compound D (40 mg/kg, suspended with 0.5% HPMC) by oral administration alone, or taxol by i.v. injection (20 mg/kg), or combination of taxol with oral administration of Compound D. Typically, taxol was administered once per week by iv injection on the first day as a single administration, while Compound D was administered once daily for 14 days. Tumor volumes and gross body weight of animals were monitored twice weekly for up to 2 weeks. Each experimental group contained 6 animals."}}, "note": "Entries after “also recorded” stand apart in the source; their conditions may differ.", "data": [{"smiles": "Nc1ccccc1NC(=O)c1ccc(CNc2nccc(-c3cccnc3)n2)cc1", "note": "[Compound A]", "values": [{"measurement": "histone H3 acetylation", "setting": "[1]", "value": "dose-dependent induction"}, {"measurement": "tubule length", "setting": "[2]", "value": "inhibits"}, {"measurement": "tumor response to combination therapy with taxol", "setting": "H460 (NSCLC) xenografts; Compound A 100 mg/kg or SAHA 120 mg/kg with taxol 60 mg/kg", "value": "tumor regression"}, {"measurement": "anti-tumor effect of taxane (tumor volume)", "setting": "H460 (NSCLC) xenografts; Compound A 100 mg/kg p.o. 3 times per week with taxol 60 mg/kg i.v. day 1", "value": "potentiation"}, {"measurement": "bFGF transcription", "setting": "[3]", "value": "more dramatic than by SAHA; also recorded: suppression"}, {"measurement": "MT3 transcription in tumors", "setting": "[4]", "value": "induction"}]}, {"smiles": "Nc1ccc(-c2ccccc2)cc1NC(=O)c1ccc(N2CC[C@H](N)C2)cc1", "note": "[Compound D]", "values": [{"measurement": "antitumor activity of taxol", "setting": "[5]", "value": "Potentiation"}]}]}
